{"source": "patent EP0233031B1", "about": "“Methylthioribose analogues, their preparation and use as medicinal agents and biocides” (STATE OF OREGON BY AND THROUGH OREGON STATE BOARD OF HIGHER …, priority 1986, dated 1987)", "type_in_all_cases": "cell-based", "key": {"Candida albicans [1]": {"tested_on": "Candida albicans", "test": "Growth inhibition of Candida albicans in LB broth (optical density / visible growth)", "details": "for OD550 24 hrs / OD550 7 days / OD550 at 24 Hrs: 10^4 cells; for OD550 at 24 Hrs: LB broth", "method": "In the following examples, an MTR kinase-dependent microorganism is treated in vitro with compounds of this invention. In the following examples, LB is a growth medium (Luria-Bertani) containing, per liter, 10 grams Bacto-tryptone, 5 grams Bacto-yeast extract and 10 grams NaCl. OD₅₅₀ is a measure of the optical density of the suspension at the indicated time. Low optical density indicates a low cell concentration in the suspension and thus that compounds were effective to inhibit the growth of the microorganisms."}, "Candida albicans [2]": {"tested_on": "Candida albicans", "test": "Colony count of Candida albicans after incubation with ETR (cytocidal vs cytostatic)", "details": "for Total # Organisms: colonies x dilution factor 200; for Colonies: 10^3 orgs, 100 l of 1:10 dilution plated", "text": "In this example, samples containing a known number of microorganisms were colonized without ETR and in the presence of ETR. In the instances where growth occurred, one colony formed for each microorganism."}, "mouse marrow": {"tested_on": "mouse marrow", "test": "CFU-GM assay, toxicity toward mouse marrow", "text": "In the following examples, human bone marrow and mouse marrow cells were subjected to ethylthioribose. In each case, a preparation of immature blood cells from bone marrow were conventionally stimulated to mature in a gel matrix. Immature human granulocytic precursor (CFU-GM) cells formed a colony in the matrix and the number of cells in the colony was counted. Such tests are believed to be a good measure of the toxicity of the subject compounds to humans."}, "[3]": {"tested_on": "Ochromonas malhamensis (ATCC #11532)", "test": "Toxicity to Ochromonas malhamensis culture (cell number by hemacytometer)", "details": "Poterioochromonas malhamensis, ATCC11532; 48 hours of incubation; thioglycolate broth; 4x10^4 cells per ml; read-out: ID50 (the source's name)", "method": "• a. Procedure. 2 ml cultures of O. malhamensis were set up at a cell density of 4x10⁴ per ml. The culture medium used was thioglycolate broth and incubation took place at ambient temperature near a south-facing window (these organisms are photosynthetic). ETR was added at the appropriate dilution at the beginning of the experiment. Cell number was determined using a hemacytometer. The data (shown below) were obtained after 48 hours of incubation. • b. Results. [formula]"}, "[4]": {"tested_on": "Giardia lamblia (Portland 1 strain)", "test": "Inhibition of Giardia lamblia culture (cell number by hemacytometer)", "method": "• a. Procedure. Giardia lamblia was cultured in Diamond's TP-S-1 medium supplemented with 10% heat-inactivated calf serum and antibiotics (penicillin and streptomycin). The antibiotics were added to prevent contamination by bacteria. Tube cultures containing 7 mls of medium were seeded with 5 x 10⁴ organisms per ml and incubated horizontally at 37°C for 48 hrs. ETR was added at the beginning of the experiment. Cell number was determined with the aid of a hemacytometer. • b. Results. [formula]"}, "Plasmodium falciparum": {"tested_on": "Plasmodium falciparum", "test": "Plasmodium falciparum in vitro erythrocyte culture, Giemsa-stained thin smears", "method": "• a. Procedure. Parasitized erythrocytes from a stock four-day-old culture at approximately 10% infection were mixed with washed clean erythrocytes to give a final parasitemia of approximately 1%. Using 1.2 cm plastic Petri dishes duplicate 1 ml cultures were initiated with drug dilutions in complete RPMI-1640, containing 0.1 ml of erythrocytes and 50 ug of gentamycin/ml. The cultures were supplemented with RPMI-1640 (25 mM HEPES), 0.24% sodium bicarbonate and 10% human serum (Type A⁻). All cultures were gassed with 90% nitrogen, 5% carbon dioxide and 5% oxygen prior to incubation at 37°C. Parasite growth was assessed by microscopic evaluation of Giemsa-stained thin-smears. • b. Results. [formula]"}}, "data": [{"smiles": "OC1O[C@H](CCl)[C@@H](O)[C@H]1O", "note": "(some centres unmarked) [5-Chloro-5-Deoxyribose, 5-deoxy-5-chlororibose]", "values": [{"measurement": "OD550 24 hrs", "setting": "Candida albicans [1]; 0.2 of 10mM stock + LB 1.8", "result": 0.0}, {"measurement": "OD550 7 days", "setting": "Candida albicans [1]; 0.2 of 10mM stock + LB 1.8", "result": 0.0}, {"measurement": "OD550 24 hrs", "setting": "Candida albicans [1]; 0.4 of 10mM stock + LB 1.6", "result": 0.0}, {"measurement": "OD550 7 days", "setting": "Candida albicans [1]; 0.4 of 10mM stock + LB 1.6", "result": 0.0}, {"measurement": "OD550 24 hrs", "setting": "Candida albicans [1]; 0.8 of 10mM stock + LB 1.2", "result": 0.0}, {"measurement": "OD550 7 days", "setting": "Candida albicans [1]; 0.8 of 10mM stock + LB 1.2", "result": 0.0}, {"measurement": "killing of Candida albicans", "setting": "Candida albicans [1]; conclusion of Example 20", "result": "effective to kill"}]}, {"smiles": "CCSC[C@H]1OC(O)[C@H](O)[C@@H]1O", "note": "(some centres unmarked) [ETR, 5-ethylthio-5-deoxyribose]", "values": [{"measurement": "OD550 at 24 Hrs", "setting": "Candida albicans [1]; ETR 0.092mM", "result": 0.409}, {"measurement": "OD550 at 24 Hrs", "setting": "Candida albicans [1]; ETR 0.23mM", "result": 0.355}, {"measurement": "OD550 at 24 Hrs", "setting": "Candida albicans [1]; ETR 0.46mM", "result": 0.357}, {"measurement": "OD550 at 24 Hrs", "setting": "Candida albicans [1]; ETR 0.9mM", "result": 0.120}, {"measurement": "OD550 at 24 Hrs", "setting": "Candida albicans [1]; ETR 2.3mM", "result": 0.0}, {"measurement": "OD550 at 24 Hrs", "setting": "Candida albicans [1]; ETR 4.6mM", "result": 0.0}, {"measurement": "OD550 at 24 Hrs", "setting": "Candida albicans [1]; ETR 9.2mM", "result": 0.0}, {"measurement": "growth of Candida albicans", "setting": "Candida albicans [1]; conclusion of Examples 17 and 18", "result": "clearly inhibits the growth"}, {"measurement": "Total # Organisms", "setting": "Candida albicans [2]; 3 hrs (+ETR) 4mM", "result": 400}, {"measurement": "Colonies", "setting": "Candida albicans [2]; 3 hrs incubation with ETR 0.5ml (4mM)", "result": 2}, {"measurement": "Total # Organisms", "setting": "Candida albicans [2]; 5 hrs (w/ETR) 4mM", "result": 0}, {"measurement": "Colonies", "setting": "Candida albicans [2]; 5 hrs incubation with ETR 1.5ml (4mM)", "result": 0}, {"measurement": "cytocidal as opposed to cytostatic", "setting": "Candida albicans [2]; conclusion of Example 19", "result": "cytocidal"}, {"measurement": "colonies formed in the presence of ETR", "setting": "Candida albicans [2]; summary statement of Example 19", "result": "less than 1,000 colonies"}, {"measurement": "CFU-GM", "setting": "mouse marrow; ETR 100 (1:1)", "result": "34 --"}, {"measurement": "CFU-GM", "setting": "mouse marrow; ETR 100 (1:1k), duplicate counts", "result": "36,37"}, {"measurement": "CFU-GM", "setting": "mouse marrow; ETR 100 (1:2), duplicate counts", "result": "37,33"}, {"measurement": "CFU-GM", "setting": "mouse marrow; ETR 100 (1:4), duplicate counts", "result": "32,34"}, {"measurement": "CFU-GM", "setting": "mouse marrow; ETR 100 (1:10), duplicate counts", "result": "36,34"}, {"measurement": "CFU-GM", "setting": "mouse marrow; ETR 100 (1:10k), duplicate counts", "result": "35,32"}, {"measurement": "CFU-GM", "setting": "mouse marrow; ETR 100 (1:20k), duplicate counts", "result": "32,34"}, {"measurement": "CFU-GM", "setting": "mouse marrow; ETR 100 (1:40), duplicate counts", "result": "33,35"}, {"measurement": "CFU-GM", "setting": "mouse marrow; ETR 100 (1:50), duplicate counts", "result": "37,36"}, {"measurement": "CFU-GM", "setting": "mouse marrow; ETR 100 (1:100)", "result": "39 --"}, {"measurement": "CFU-GM", "setting": "mouse marrow; ETR 100 (1:100k), duplicate counts", "result": "33,35"}, {"measurement": "CFU-GM", "setting": "mouse marrow; ETR 100 (stock), duplicate counts", "result": "35,36"}, {"measurement": "IC50", "setting": "[3]", "result": 20, "unit": "µM"}, {"measurement": "IC50", "setting": "[4]; Giardia duodenalis, 48 hrs at 37°C, 5 x 10^4 organisms per ml, read-out: ID50 (the source's name)", "result": "~450", "unit": "µM"}, {"measurement": "cell death and lack of \"swimming\"", "setting": "[4]; concentrations ranging from 0.62mM to 5mM", "result": "significant cell death and lack of \"swimming\""}, {"measurement": "parasitemia", "setting": "Plasmodium falciparum; 24 hours, 1mM ETR", "result": "remained at or below the level of the initial inoculum"}, {"measurement": "parasite growth", "setting": "Plasmodium falciparum; 24 hours, 1 mM ETR (lowest concentration tested)", "result": "a small increase in growth was noted but the parasites appeared abnormal"}, {"measurement": "parasitemia", "setting": "Plasmodium falciparum; 24 hours, 5mM ETR", "result": "remained at or below the level of the initial inoculum"}, {"measurement": "parasitemia", "setting": "Plasmodium falciparum; 48 hours, 1 mM ETR (lowest concentration tested), initial seeding <1.0%", "result": "less than 0.1%"}, {"measurement": "infection", "setting": "Plasmodium falciparum; 72 hours, 1 mM ETR (lowest concentration tested)", "result": "less than 1 parasite per 10,000 red cells"}, {"measurement": "culture infection", "setting": "Plasmodium falciparum; 72 hours, all drug-treated cultures", "result": "completely negative"}, {"measurement": "reappearance of parasitemia", "setting": "Plasmodium falciparum; after 5 days (the last 3 days without drug)", "result": "did not reappear"}, {"measurement": "inhibition of P. falciparum in vitro", "setting": "Plasmodium falciparum; overall conclusion", "result": "inhibitory"}]}]}
